The format of data set [1] is in vitro ADME, mouse.
The format of data set [2] is in vitro ADME, mouse. This is another data set of the same source.
A further data set has as its system HepG2 cells. The experiment in a line: HepG2 cytotoxicity. The following applies: Homo sapiens, HepG2, read-out: HepG2 inhibitory concentration (IC50).
A further data set deals with M. tuberculosis (H37Rv). The experiment in a line: microbe, parasite or virus in culture. As to conditions: for MIC: Mycobacterium tuberculosis, H37RV. It counts as cell-based, Mycobacterium tuberculosis.
The nature of data set [3]: physchem. It counts as physicochemical.
Data set [4] is described as follows: physchem. The following applies: pH 7.4.
The mark [5] stands for this setting: read-out: Wk2_7H9/DPPC/ casitone/ Tyloxapol MIC.
The mark [6] stands for this setting: read-out: Wk2_ 7H9/DPPC/ cholesterol/BSA/ Tyloxapol MIC.
The mark [7] stands for this setting: read-out: Wk2_7H9/glucose/ BSA/Tyloxapol MIC.
[8] abbreviates: read-out: Wk2_7H9/glucose/ casitone/ Tyloxapol MIC.
The mark [9] stands for this setting: pH 7.4, aqueous buffer, kinetic from dmso stock.
[10] abbreviates: intrinsic clearance (Cli), CD1 mouse liver microsomes, Tables 1-4.
Setting [11] is: kinetic solubility in water, read-out: Kin. Sol.
Setting [12] is: pH 7.4, aqueous buffer, kinetic from dmso stock, pH7.4, read-out: Kinetic Solubility pH7.4.

≈ marks a conversion by molar mass, not a printed value. Like-named read-outs stand apart in the source and are kept apart here.

A word on the chromatographic logD: it is a lipophilicity value derived from retention on a column. Low values mean a more hydrophilic compound, high ones a more lipophilic compound.

Text for HepG2 cells: Assays to establish HepG2 cytotoxicity, in vitro microsomal/hepatocyte metabolic stability, aqueous kinetic solubility, and in vivo pharmacokinetic profiles were all performed as previously described.[15],[35]−[37]

In the case of `CN(C)c1nccc2oc(-c3c(F)c(F)c(F)c(F)c3F)nc12` [Compound 14, CN(C)c1nccc2oc(nc12)-c1c(c(c(c(c1F)F)F)F)F], the “Hepatocyte Cli” value in data set [1] (mouse) was more than 50 mL/min/g. The “Mouse Heps Cl” value in data set [1] (mouse, hepatocytes) is given as more than 50 mLmin/g. Besides, the “Microsomal Cli” value in data set [2] (CD1, mouse) is given as more than 50 mL/min/g. In addition, in data set [2] (mouse, microsomes), the “Mouse micro Cl” value is more than 50 mLmin/g. Besides, the IC50 in the data set on HepG2 cells is more than 100 µM. Moreover, the MIC is 3.1 µM (≈ 1.02 µg/mL) in the data set with M. tuberculosis (H37Rv) (read-out: H37Rv MIC A); 9.4 µM (≈ 3.09 µg/mL) with M. tuberculosis (H37Rv) (read-out: H37Rv MIC B); 3.1 µM (≈ 1.02 µg/mL) in the data set with M. tuberculosis (H37Rv) (setting [5]); 9.4 µM (≈ 3.09 µg/mL) in the data set on M. tuberculosis (H37Rv) (setting [6]); 6.3 µM (≈ 2.07 µg/mL) in the data set on M. tuberculosis (H37Rv) (setting [7]); 3.1 µM (≈ 1.02 µg/mL) in the data set on M. tuberculosis (H37Rv) (setting [8]).
Consider `Oc1ncnc2oc(-c3c(F)c(F)c(F)c(F)c3F)nc12` [Compound 15, Oc1ncnc2oc(nc12)-c1c(c(c(c(c1F)F)F)F)F], for which the “Hepatocyte Cli” value in data set [1] (mouse) was more than 50 mL/min/g. In addition, the “Mouse Heps Cl” value in data set [1] (mouse, hepatocytes) is reported as more than 50 mLmin/g. Moreover, the “Microsomal Cli” value in data set [2] (CD1, mouse) stood at 2.8 mL/min/g. Also, the “Mouse micro Cl” value in data set [2] (mouse, microsomes) was found to be 2.81 mLmin/g. The IC50 in the data set with HepG2 cells turned out to be 88 µM. Further, the solubility kinetic in “physchem [3]” (setting [9]) and in the data set “physchem [3]” (read-out: Kin. Sol) was 149 µM (≈ 45.2 µg/mL) each time. For the same molecule, the MIC with M. tuberculosis (H37Rv) (read-out: H37Rv MIC A) is 1.4 µM (≈ 0.424 µg/mL); with M. tuberculosis (H37Rv) (read-out: H37Rv MIC B) it was 9.4 µM (≈ 2.85 µg/mL); in the data set on M. tuberculosis (H37Rv) (setting [5]) it was 1.4 µM (≈ 0.424 µg/mL); in the data set with M. tuberculosis (H37Rv) (setting [6]), 9.4 µM (≈ 2.85 µg/mL); in the data set on M. tuberculosis (H37Rv) (setting [7]), 5.4 µM (≈ 1.64 µg/mL); in the data set on M. tuberculosis (H37Rv) (setting [8]), 3.9 µM (≈ 1.18 µg/mL).
Turning to `COC(=O)c1cnccc1NC(=O)c1c(F)c(F)c(F)c(F)c1F` [Compound 16, COC(=O)c1cnccc1NC(=O)c1c(c(c(c(c1F)F)F)F)F], the “Hepatocyte Cli” value in data set [1] (mouse) was more than 50 mL/min/g. Besides, in data set [1] (mouse, hepatocytes), the “Mouse Heps Cl” value was more than 50 mLmin/g. Also, the “Microsomal Cli” value in data set [2] (CD1, mouse) was found to be 20 mL/min/g. In data set [2] (mouse, microsomes), the “Mouse micro Cl” value is 20 mLmin/g. In addition, the IC50 in the data set with HepG2 cells came out at 64 µM. The same molecule had a chromatographic logD in the data set “physchem [4]” of 3.2. The solubility kinetic in “physchem [3]” (setting [9]) and in “physchem [3]” (read-out: Kin. Sol) was 112 µM (≈ 38.8 µg/mL) throughout. Also, the MIC with M. tuberculosis (H37Rv) (read-out: H37Rv MIC A) was determined as 0.1 µM (≈ 0.0346 µg/mL); in the data set with M. tuberculosis (H37Rv) (read-out: H37Rv MIC B) it was 0.6 µM (≈ 0.208 µg/mL); in the data set on M. tuberculosis (H37Rv) (setting [5]) it was 0.1 µM (≈ 0.0346 µg/mL); with M. tuberculosis (H37Rv) (setting [6]), 0.6 µM (≈ 0.208 µg/mL); with M. tuberculosis (H37Rv) (setting [7]), 0.3 µM (≈ 0.104 µg/mL); in the data set with M. tuberculosis (H37Rv) (setting [8]), 0.15 µM (≈ 0.0519 µg/mL).
With `COC(=O)c1ccncc1NC(=O)c1c(F)c(F)c(F)c(F)c1F` [Compound 18, COC(=O)c1ccncc1NC(=O)c1c(c(c(c(c1F)F)F)F)F], in data set [2] (CD1, mouse), the “Microsomal Cli” value is reported as 27 mL/min/g. The “Mouse micro Cl” value in data set [2] (mouse, microsomes) stood at 27 mLmin/g. In addition, the IC50 in the data set with HepG2 cells is more than 100 µM. Further, the chromatographic logD in the data set “physchem [4]” was determined as 2.8. Further, the solubility kinetic in the data set “physchem [3]” (setting [9]) and in “physchem [3]” (read-out: Kin. Sol) was 109 µM (≈ 37.7 µg/mL) in each case. Also, the MIC with M. tuberculosis (H37Rv) (read-out: H37Rv MIC A) was determined as 4.7 µM (≈ 1.63 µg/mL); with M. tuberculosis (H37Rv) (read-out: H37Rv MIC B), 12.5 µM (≈ 4.33 µg/mL); in the data set on M. tuberculosis (H37Rv) (setting [5]), 4.7 µM (≈ 1.63 µg/mL); in the data set with M. tuberculosis (H37Rv) (setting [6]) it was 12.5 µM (≈ 4.33 µg/mL); in the data set with M. tuberculosis (H37Rv) (setting [7]) it was 12.5 µM (≈ 4.33 µg/mL); with M. tuberculosis (H37Rv) (setting [8]), 4.7 µM (≈ 1.63 µg/mL).
On to `COC(=O)c1nn(C)cc1NC(=O)c1c(F)c(F)c(F)c(F)c1F` [Compound 19, COC(=O)c1nn(cc1NC(=O)c1c(c(c(c(c1F)F)F)F)F)C], for which the “Mouse Heps Cl” value in data set [1] (intrinsic clearance (Cli), mouse hepatocytes, Tables 1-4) is listed as more than 50 mLmin/g. Further, the “Hepatocyte Cli” value in data set [1] (supplement data table) is on record as more than 50 mL/min/g. Also, in data set [2] (setting [10]), the “Mouse micro Cl” value turned out to be 23 mLmin/g. Moreover, the “Microsomal Cli” value in data set [2] (supplement data table) is 23 mL/min/g. Also, the IC50 with HepG2 cells is more than 100 µM. In “physchem [4]”, this molecule returned a chromatographic logD of 2.7. The solubility kinetic in the data set “physchem [3]” (setting [11]) and in the data set “physchem [3]” (setting [12]) was 55 µM (≈ 19.2 µg/mL) each time. The MIC in the data set on M. tuberculosis (H37Rv) (read-out: H37Rv MIC A) was 0.15 µM (≈ 0.0524 µg/mL); in the data set with M. tuberculosis (H37Rv) (setting [5]), 0.15 µM (≈ 0.0524 µg/mL); in the data set on M. tuberculosis (H37Rv) (setting [7]) it was 0.3 µM (≈ 0.105 µg/mL); in the data set with M. tuberculosis (H37Rv) (setting [8]), 0.2 µM (≈ 0.0698 µg/mL).
In the case of `CCOC(=O)c1c(NC(=O)c2c(F)c(F)c(F)c(F)c2F)ncn1C` [Compound 21, CCOC(=O)c1c(ncn1C)NC(=O)c1c(c(c(c(c1F)F)F)F)F], the “Mouse micro Cl” value in data set [2] (setting [10]) was 8.6 mLmin/g. Besides, the “Microsomal Cli” value in data set [2] (supplement data table) was 8.6 mL/min/g. Also, the IC50 in the data set with HepG2 cells was more than 100 µM. This molecule also came in with a chromatographic logD in “physchem [4]” of 2.2. Also, the solubility kinetic in “physchem [3]” (setting [11]) and in the data set “physchem [3]” (setting [12]) was 203 µM (≈ 73.7 µg/mL) in each case. The MIC turned out to be 2.3 µM (≈ 0.835 µg/mL) with M. tuberculosis (H37Rv) (read-out: H37Rv MIC A); 6.3 µM (≈ 2.29 µg/mL) in the data set with M. tuberculosis (H37Rv) (read-out: H37Rv MIC B); 2.3 µM (≈ 0.835 µg/mL) in the data set on M. tuberculosis (H37Rv) (setting [5]); 6.3 µM (≈ 2.29 µg/mL) in the data set with M. tuberculosis (H37Rv) (setting [6]); 4.7 µM (≈ 1.71 µg/mL) in the data set with M. tuberculosis (H37Rv) (setting [7]); 1.6 µM (≈ 0.581 µg/mL) with M. tuberculosis (H37Rv) (setting [8]). In addition, in the data set with M. tuberculosis (H37Rv) (relative to comparator of the series (21 vs thiophenes; 42 vs 24)), the “loss of MIC potency” value was 10 fold.
Turning to `CCOC(=O)c1nc(C)oc1NC(=O)c1cc(F)c(F)c(F)c1` [Compound 26, CCOC(=O)c1nc(oc1NC(=O)c1cc(c(c(c1)F)F)F)C], in data set [2] (setting [10]), the “Mouse micro Cl” value was 7.1 mLmin/g. The “Microsomal Cli” value in data set [2] (supplement data table) is 7.1 mL/min/g. This molecule also registered a chromatographic logD in “physchem [4]” of 2.3. Also, the solubility kinetic in the data set “physchem [3]” (setting [11]) and in “physchem [3]” (setting [12]) was 241 µM (≈ 79.1 µg/mL) each time. Besides, the MIC in the data set on M. tuberculosis (H37Rv) (read-out: H37Rv MIC A), in the data set on M. tuberculosis (H37Rv) (read-out: H37Rv MIC B), in the data set on M. tuberculosis (H37Rv) (setting [5]), with M. tuberculosis (H37Rv) (setting [6]), in the data set with M. tuberculosis (H37Rv) (setting [7]) and in the data set on M. tuberculosis (H37Rv) (setting [8]) was more than 50 µM throughout.

The values are drawn from paper PMC11915372, “Identification of a Series Containing a Pentafluorophenyl Moiety That Targets Pks13 to Inhibit Growth of Mycobacterium tuberculosis” (ACS Infectious Diseases, 2025).
